Columns and labels:
Experiment in all cases: Test D pre-/postemergence plant response
Type in all cases: in vivo
[1] = test system: Italian ryegrass (Lolium multiflorum)
Method in brief: (§1)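 Under greenhouse conditions for 14 to 21 days, plants treated pre- or postemergence with surfactant-formulated compound were compared by eye with untreated controls and scored 0–100 (100 = complete control; dash = no result).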

[2] = test system: black mustard (Brassica nigra)
Method in brief: as §1

[3] = test system: dayflower (Virginia (VA) dayflower, Commelina virginica)
Method in brief: as §1

[4] = test system: field bindweed (Convolvulus arvensis)
Method in brief: as §1

[5] = test system: groundsel (common groundsel, Senecio vulgaris); details: Postemergence
Method in brief: as §1

[6] = test system: itchgrass (Rottboellia cochinchinensis)
Method in brief: as §1

[7] = test system: nutsedge (purple nutsedge, Cyperus rotundus)
Method in brief: as §1

[8] = test system: prickly sida (Sida spinosa)
Method in brief: as §1

[9] = test system: purslane (common purslane, Portulaca oleracea)
Method in brief: as §1

[10] = test system: sowthistle (common sowthistle, Sonchus oleraceous)
Method in brief: as §1

[11] = Postemergence, 16 g ai/ha, scale 0 to 100
[12] = Postemergence, 31 g ai/ha, scale 0 to 100
[13] = Postemergence, 125 g ai/ha, scale 0 to 100 (0 no effect, 100 complete control)
[14] = Postemergence, 62 g ai/ha, scale 0 to 100 (0 no effect, 100 complete control)
[15] = Preemergence, 16 g ai/ha, scale 0 to 100, 0 no effect, 100 complete control
[16] = Preemergence, 31 g ai/ha, scale 0 to 100 (0 no effect, 100 complete control)
[17] = Preemergence, 125 g ai/ha, scale 0 to 100
[18] = Postemergence, 31 g ai/ha, scale 0 to 100 (0 no effect, 100 complete control)
[19] = Preemergence, 62 g ai/ha, scale 0 to 100
[20] = 125 g ai/ha, scale 0 to 100 (0 no effect, 100 complete control)
[21] = 62 g ai/ha, scale 0 to 100 (0 no effect, 100 complete control)
[22] = Postemergence, 250 g ai/ha, scale 0 to 100 (0 no effect, 100 complete control)

O=C1CCCC(O)=C1C(=O)c1cnc(-c2ccccc2)n(C2CCCCC2)c1=O [Compound 128, 3-cyclohexyl-5-[(2-hydroxy-6-oxo-1-cyclohexen-1-yl)carbonyl]-2-phenyl-4(3H)-pyrimidinone]
Plant response rating, Ryegrass, Italian [1, 11]: 0 | Plant response rating, Ryegrass, Italian [1, 12]: 0 | Plant response rating, Ryegrass, Italian [1, 13]: 5 | Plant response rating, Ryegrass, Italian [1, 14]: 0 | Plant response rating, Ryegrass, Italian [1, 15]: 0 | Plant response rating, Ryegrass, Italian [1, 16]: 0 | Plant response rating, Ryegrass, Italian [1, 17]: 0 | Plant response rating, Ryegrass, Italian ([1]; Preemergence, rate not given, scale 0 to 100, 0 no effect, 100 complete control): 0 | Plant response rating, Black Mustard [2, 11]: 95 | Plant response rating, Black Mustard [2, 18]: 95 | Plant response rating, Black Mustard [2, 13]: 95 | Plant response rating, Black Mustard [2, 14]: 95 | Plant response rating, Black Mustard [2, 15]: 60 | Plant response rating, Black Mustard [2, 16]: 60 | Plant response rating, Black Mustard [2, 19]: 85 | Plant response rating, Black Mustard [2, 17]: 95 | Plant response rating, Dayflower, VA [3, 11]: 50 | Plant response rating, Dayflower, VA [3, 12]: 50 | Plant response rating, Dayflower, VA [3, 13]: 70 | Plant response rating, Dayflower, VA [3, 14]: 60 | Plant response rating, Dayflower, VA [3, 16]: 0 | Plant response rating, Dayflower, VA [3, 19]: 10 | Plant response rating, Dayflower, VA [3, 17]: 25 | Plant response rating, Field Bindweed [4, 11]: 50 | Plant response rating, Field Bindweed [4, 12]: 50 | Plant response rating, Field Bindweed [4, 13]: 65 | Plant response rating, Field Bindweed [4, 14]: 65 | Plant response rating, Field Bindweed [4, 15]: 0 | Plant response rating, Field Bindweed [4, 16]: 0 | Plant response rating, Field Bindweed [4, 19]: 35 | Plant response rating, Field Bindweed [4, 17]: 98 | Plant response rating, Groundsel ([5]; 16 g ai/ha, scale 0 to 100): 100 | Plant response rating, Groundsel ([5]; 31 g ai/ha, scale 0 to 100): 100 | Plant response rating, Groundsel [5, 20]: 100 | Plant response rating, Groundsel [5, 21]: 100 | Plant response rating, Itchgrass [6, 11]: 0 | Plant response rating, Itchgrass [6, 12]: 40 | Plant response rating, Itchgrass [6, 13]: 65 | Plant response rating, Itchgrass [6, 14]: 40 | Plant response rating, Itchgrass [6, 15]: 0 | Plant response rating, Itchgrass [6, 16]: 0 | Plant response rating, Itchgrass [6, 19]: 0 | Plant response rating, Itchgrass [6, 17]: 20 | Plant response rating, Nutsedge, Purple [7, 11]: 0 | Plant response rating, Nutsedge, Purple [7, 12]: 10 | Plant response rating, Nutsedge, Purple [7, 13]: 50 | Plant response rating, Nutsedge, Purple [7, 14]: 35 | Plant response rating, Nutsedge, Purple [7, 15]: 0 | Plant response rating, Nutsedge, Purple [7, 16]: 0 | Plant response rating, Nutsedge, Purple [7, 19]: 0 | Plant response rating, Nutsedge, Purple [7, 17]: 70 | Plant response rating, Prickly Sida [8, 11]: 50 | Plant response rating, Prickly Sida [8, 12]: 60 | Plant response rating, Prickly Sida [8, 13]: 80 | Plant response rating, Prickly Sida [8, 14]: 65 | Plant response rating, Prickly Sida [8, 15]: 0 | Plant response rating, Prickly Sida [8, 16]: 0 | Plant response rating, Prickly Sida [8, 19]: 25 | Plant response rating, Prickly Sida [8, 17]: 30 | Plant response rating, Purslane [9, 11]: 30 | Plant response rating, Purslane [9, 12]: 30 | Plant response rating, Purslane [9, 13]: 50 | Plant response rating, Purslane [9, 14]: 30 | Plant response rating, Purslane [9, 15]: 0 | Plant response rating, Purslane [9, 16]: 0 | Plant response rating, Purslane [9, 19]: 100 | Plant response rating, Purslane [9, 17]: 100 | Plant response rating, Sowthistle [10, 11]: 100 | Plant response rating, Sowthistle [10, 12]: 100 | Plant response rating, Sowthistle [10, 13]: 100 | Plant response rating, Sowthistle [10, 14]: 100 | Plant response rating, Sowthistle [10, 15]: 80 | Plant response rating, Sowthistle [10, 16]: 80 | Plant response rating, Sowthistle [10, 17]: 100

CCCn1c(-c2ccccc2)ncc(C(=O)C2=C(O)C3CCC(C3)C2=O)c1=O (centres unmarked) [Compound 226]
Plant response rating, Ryegrass, Italian [1, 13]: 0 | Plant response rating, Ryegrass, Italian [1, 22]: 15 | Plant response rating, Ryegrass, Italian [1, 14]: 0 | Plant response rating, Black Mustard [2, 18]: 65 | Plant response rating, Black Mustard [2, 13]: 80 | Plant response rating, Black Mustard [2, 22]: 85 | Plant response rating, Black Mustard [2, 14]: 80 | Plant response rating, Dayflower, VA [3, 22]: 65 | Plant response rating, Dayflower, VA [3, 14]: 50 | Plant response rating, Field Bindweed [4, 13]: 70 | Plant response rating, Field Bindweed [4, 22]: 80 | Plant response rating, Field Bindweed [4, 14]: 70 | Plant response rating, Groundsel [5, 20]: 95 | Plant response rating, Groundsel ([5]; 250 g ai/ha, scale 0 to 100 (0 no effect, 100 complete control)): 100 | Plant response rating, Groundsel [5, 21]: 90 | Plant response rating, Itchgrass [6, 13]: 70 | Plant response rating, Itchgrass [6, 22]: 90 | Plant response rating, Itchgrass [6, 14]: 70 | Plant response rating, Nutsedge, Purple [7, 13]: 0 | Plant response rating, Nutsedge, Purple [7, 22]: 5 | Plant response rating, Nutsedge, Purple [7, 14]: 0 | Plant response rating, Prickly Sida [8, 13]: 70 | Plant response rating, Prickly Sida [8, 22]: 75 | Plant response rating, Prickly Sida [8, 14]: 65 | Plant response rating, Purslane [9, 13]: 65 | Plant response rating, Purslane [9, 22]: 70 | Plant response rating, Purslane [9, 14]: 50 | Plant response rating, Sowthistle [10, 13]: 98 | Plant response rating, Sowthistle [10, 22]: 98 | Plant response rating, Sowthistle [10, 14]: 98
